Test results from patent US5620959A, “Bombesin antagonists” (Glaxo Wellcome Inc., priority 1990, dated 1997).

Molecular target: 3T3 ROZ cells (Mus musculus, UniProt P21729)
Assay: Inhibition of bombesin-stimulated mitogenesis (3H-thymidine uptake) of quiescent 3T3 ROZ cells
Format: cell-based
Settings: compared with the peptide from the other stereoisomer at the hydroxy position; test not named at b235
Description: Antagonistic activity was measured by inhibition of the mitogenic stimulation of quiescent 3T3 ROZ cells. […] Cells were incubated for eighteen hours with 10 ng/mL of BN either alone or in the presence of an antagonist. Cells were then pulsed-labeled for 2 hours with ^3 H-thymidine and washed. The incorporated ^3 H was then counted.
Potency of antagonists was measured by inhibition of this maximum response down to baseline level. IC50 values were determined from titration curves.

Chain of 3T3 ROZ cells (P21729 whole entry): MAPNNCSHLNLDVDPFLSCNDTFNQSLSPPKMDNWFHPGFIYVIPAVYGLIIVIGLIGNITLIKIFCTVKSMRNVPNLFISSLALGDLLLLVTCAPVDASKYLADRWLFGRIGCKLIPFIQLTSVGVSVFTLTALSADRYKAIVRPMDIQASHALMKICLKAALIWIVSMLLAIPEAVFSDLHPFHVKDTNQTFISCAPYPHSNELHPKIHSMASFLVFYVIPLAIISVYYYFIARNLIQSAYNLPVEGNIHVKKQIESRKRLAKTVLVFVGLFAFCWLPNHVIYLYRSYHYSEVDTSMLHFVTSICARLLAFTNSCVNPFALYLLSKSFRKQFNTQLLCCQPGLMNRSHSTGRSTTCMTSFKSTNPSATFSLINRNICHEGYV

## CC(C)[C@H](NC(=O)[C@H](C)NC(=O)[C@H](Cc1c[nH]c2ccccc12)NC(=O)[C@H](Cc1c[nH]cn1)NC(=O)CCc1ccccc1)C(=O)N[C@H](C)C(=O)N[C@@H](Cc1c[nH]cn1)C(=O)N1CCC[C@@H]1C(O)CC(=O)N[C@@H](Cc1ccccc1)C(N)=O (single isomer, unassigned) [N--((3-Phenyl)Propionyl)--HisTrpAlaVal D--AlaHis(3-(2-Pyrrolidinyl-3Hydroxy)Propionyl)--Phe--NH2]
  relative activity of the two peptides made from the two hydroxy stereoisomers: the more active of the two
